Results: article PMC13053910, “Covalent Protein Inhibitors via Tyrosine and Tryptophan Conjugation with Cyclic Imine Mannich Electrophiles” (Angewandte Chemie (International Ed. in English), 2026)
Non-standard residues stand in square brackets, D forms with d. Residues, ends and D or L forms follow the SMILES beside them. *: point of attachment. Benzoyl(4-OPh) = O=C(c1ccc(Oc2ccccc2)cc1)*; Lys(Et2) = CCN(CC)CCCC[C@H](N)C(=O)O; Gly(cPent) = N[C@H](C(=O)O)C1CCCC1

What was measured:
[1] = system: HOXA9 gene expression in THP1 cells; assay: qRT-PCR analysis of HOXA9 gene expression in THP1 cells; format: cell-based, Human; conditions: 48 h
Method: Figure 7 Cellular activity of covalent, cyclic imine inhibitors to CBX8. a) qRT‐PCR analysis of HOXA9 gene expression in THP1 cells after 48 h of compound treatment at the indicated dose. N = 3. Error bars represent SD. Statistical significance was calculated using Student's t‐test. ** = p < 0.01, **** = p < 0.0001, b) qRT‐PCR analysis of HOXA9 gene expression in THP1 cells treated with increasing doses of compound for 48 h. N = 3. Error bars represent SD.
Figure S24. Cellular activity of covalent, cyclic imine inhibitors to CBX8. qRT-PCR analysis of HOXA9 gene expression in THP1 cells after 48 h of compound treatment at the indicated dose. N = 3. Error bars represent s.d. Statistical significance determined by Student’s T test. * = p <0.05, ** = p < 0.01, *** = p < 0.001, **** = p < 0.0001.
2.4 Cell Culture Cell line, Media and Culture Conditions HEK293T cells were cultured in Dubecco’s Modified Essential Media (DMEM), 10% fetal bovine serum (FBS, JR Scientific), 1% glutagro (Corning), 1% penicillin/streptomycin (Corning), 1% sodium pyruvate (Corning). Human THP1 cells were cultured in RPMI (Gibco), 10% FBS (J R Scientific), 1% Sodium pyruvate (Invitrogen), 1% Pen/Strep (Invitrogen), 1% Glutamax (Thermo Scientific), 0.1% 2-mercaptoethanol.
Cells were harvested after 48 h for RNA extraction. […] SYBR Green Mastermix (Thermo Scientific) was used for quantitative PCR. […]

CBX8 ChD = biological target: CBX8 ChD; set-up: method as in PMID 31755685, PMID 29309209; conditions: prior work ref 47, 48; cited from earlier work
[2] = Reaction of cyclic imine Mannich or sulfur fluoride electrophiles with Ac-Tyr-NHMe (HPLC, LC/MS); format: physicochemical; conditions: PBS pH 7, 37 °C
Method: To identify an appropriate warhead, we synthesized or purchased a collection of cyclic imines and incubated them with N‐acetyl‐L‐tyrosine methylamide (Ac‐Tyr‐NHMe) in PBS pH 7 at 37 °C (Table 1). The reactivity was quantified by UV integration on HPLC with LC/MS confirmation of product identity (Figure S1). […] The hydrolysis kinetics of imine 2 were characterized at pD 6 and 7.5 by NMR (Figure S3). […] The Mannich reaction mechanism involves a charged iminium intermediate, and the reaction is frequently catalyzed by Bronsted acids.^[ [36], [37] ^]
Figure 2 Second‐order rate constants for select cyclic imines and a sulfonyl fluoride with aromatic nucleophiles. Reactions were conducted under pseudo‐first‐order conditions with an excess of one reactant, as indicated. The reduction in the concentration of the limiting reactant was measured at various time points by HPLC analysis.
Figure S2: Second order rate constant determination. Reaction of (A) imine 1 (5 mM) with N-Ac-Tyr-NHMe (100 mM) at 37 °C or (B) at R.T. (C) imine 2 (5 mM) with N-Ac-Tyr-NHMe (100 mM) at 37 °C (D) imine 1 (5 mM) with indole-3-butyrate (100 mM) at 37 °C (E) imine 1 (10 mM) with 1 mM 1H-pyrrole-1-propionate (F) iminium 5 (5 mM) with N-Ac-Tyr-NHMe (100 mM) at 37 °C (G) imine 4 (5 mM) with N-Ac-Tyr-NHMe (100 mM) at 37 °C. (H) imine 11 (5 mM) with N-Ac-Tyr-NHMe (100 mM) at 37 °C. (I) imine 13 (5 mM) with N-Ac-Tyr-NHMe (100 mM) at 37 °C.
5.1 General procedure for determination of second order rate constants N-acetyl-l-tyrosine methyl amide (Ac-Tyr-NHMe) (100 mM) was incubated with 5 mM imine 1 in PBS (pH 7) at 37 °C or R.T..

[3] = pH 7 and 37 °C ref 39; cited from earlier work

Row | IC50 [1] [nM] | SMILES | Kd (CBX8 ChD) [nM] | reactivity (t1/2) ([2]; electrophile 5 mM, N‐acetyl‐l‐tyrosine methyl amide 100 mM) [h] | second‐order rate constant k2 with N‐Ac‐Tyr‐NHMe ([2]; pseudo‐first‐order conditions) [M⁻¹ s⁻¹] | hydrolysis half‐life [3] [h]
1 | > 22000 | CC[C@H](C)[C@H](NC(=O)[C@@H](NC(=O)c1ccc(Oc2ccccc2)cc1)C1CCCC1)C(=O)N[C@@H](CCCCN(CC)CC)C(=O)N[C@@H](CO)C(N)=O [SW2_110A, reference compound] ({Benzoyl(4-OPh)}-[Gly(cPent)]I[Lys(Et2)]S-NH2) | 800 |  |  | 
2 |  | NCCc1ccc(S(=O)(=O)F)cc1 [compound 13, 4‐(2‐aminoethyl)‐benzenesulfonyl fluoride, reference compound] |  | 0.28 ± 0.02 | 0.0069 | 6
